# Target: T1, VR1 (Homo sapiens, UniProt Q8NER1)
# T1 construct: expressed in transfected cells; host or cells: 293 cells ("293 neurons" [sic])
# Experiment: High throughput calcium imaging assay of VR1 antagonists (Fura2, Flex Station, 96 well); also: test concentration or dose not given here
# Assay type: cell-based
# Conditions: Table 1 activity class
# T1 sequence (Q8NER1 whole entry, species assumed): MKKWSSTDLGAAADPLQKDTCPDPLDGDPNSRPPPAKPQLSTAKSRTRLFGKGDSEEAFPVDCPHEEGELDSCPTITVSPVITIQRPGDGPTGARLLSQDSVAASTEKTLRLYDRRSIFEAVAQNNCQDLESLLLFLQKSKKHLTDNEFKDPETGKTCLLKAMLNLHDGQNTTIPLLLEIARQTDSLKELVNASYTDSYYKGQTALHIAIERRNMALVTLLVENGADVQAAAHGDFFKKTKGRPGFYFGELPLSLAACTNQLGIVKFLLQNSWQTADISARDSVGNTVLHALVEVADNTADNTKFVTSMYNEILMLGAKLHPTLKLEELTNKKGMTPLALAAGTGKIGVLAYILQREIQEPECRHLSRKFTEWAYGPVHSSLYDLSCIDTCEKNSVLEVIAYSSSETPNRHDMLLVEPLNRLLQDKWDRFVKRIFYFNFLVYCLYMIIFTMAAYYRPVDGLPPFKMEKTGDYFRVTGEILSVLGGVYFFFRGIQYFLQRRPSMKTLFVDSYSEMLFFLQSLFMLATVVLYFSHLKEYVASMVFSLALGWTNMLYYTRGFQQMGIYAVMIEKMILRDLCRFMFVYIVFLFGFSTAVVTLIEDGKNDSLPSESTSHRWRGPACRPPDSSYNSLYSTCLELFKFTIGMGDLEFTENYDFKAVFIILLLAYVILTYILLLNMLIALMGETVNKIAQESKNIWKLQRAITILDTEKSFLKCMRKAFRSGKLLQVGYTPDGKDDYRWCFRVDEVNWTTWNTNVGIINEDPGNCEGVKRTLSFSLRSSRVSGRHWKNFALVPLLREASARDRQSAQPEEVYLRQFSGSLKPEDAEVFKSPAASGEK
row,SMILES,inhibition of calcium ion influx induced by capsaicin stimulation
1,CC(C)/C=C/c1ccc(C(=O)NCCN2CCNCC2)cc1 [Compound 125],++++ (compound exhibited 75% or greater inhibition of calcium ion influx induced by capsaicin stimulation)
2,CCNC(=O)c1ccc(/C=C/C(C)C)cc1 [Compound 126],++ (compound exhibited 25-50% inhibition of calcium ion influx induced by capsaicin stimulation)
3,CC(C)/C=C/c1ccc(C(=O)NCc2cccs2)cc1 [Compound 127],++ (compound exhibited 25-50% inhibition of calcium ion influx induced by capsaicin stimulation)
4,CCN(CC)c1ccc(NC(=O)c2ccc(/C=C/C(C)C)cc2)cc1 [Compound 130],+++ (compound exhibited 50-75% inhibition of calcium ion influx induced by capsaicin stimulation)
5,COc1ccccc1NC(=O)c1ccc(/C=C/C(C)C)cc1 [Compound 132],+ (compound exhibited 0-25% inhibition of calcium ion influx induced by capsaicin stimulation)
6,CC(C)/C=C/c1ccc(C(=O)Nc2ccccc2Cl)cc1 [Compound 136],+ (compound exhibited 0-25% inhibition of calcium ion influx induced by capsaicin stimulation)
7,CC(C)/C=C/c1ccc(C(=O)NCC(C)C)cc1 [Compound 139],+ (compound exhibited 0-25% inhibition of calcium ion influx induced by capsaicin stimulation)
8,COc1ccc(CNC(=O)c2ccc(/C=C/C(C)C)cc2)cc1OC [Compound 142],+ (compound exhibited 0-25% inhibition of calcium ion influx induced by capsaicin stimulation)
9,CC(C)/C=C/c1ccc(C(=O)NCc2cccc(F)c2)cc1 [Compound 143],+ (compound exhibited 0-25% inhibition of calcium ion influx induced by capsaicin stimulation)
10,COc1ccc(NC(=O)c2ccc(/C=C/C(C)C)cc2)cc1Cl [Compound 145],+ (compound exhibited 0-25% inhibition of calcium ion influx induced by capsaicin stimulation)
11,CC(C)/C=C/c1ccc(C(=O)Nc2ccc(Cl)c(C(F)(F)F)c2)cc1 [Compound 148],+ (compound exhibited 0-25% inhibition of calcium ion influx induced by capsaicin stimulation)
12,CC(C)/C=C/c1ccc(C(=O)Nc2cccc(C#N)c2)cc1 [Compound 150],++ (compound exhibited 25-50% inhibition of calcium ion influx induced by capsaicin stimulation)
13,CC(C)/C=C/c1ccc(C(=O)Nc2ccccc2CCO)cc1 [Compound 151],+++ (compound exhibited 50-75% inhibition of calcium ion influx induced by capsaicin stimulation)
14,CC(C)/C=C/c1ccc(C(=O)Nc2ccc(C(C)C)cc2)cc1 [Compound 153],++++ (compound exhibited 75% or greater inhibition of calcium ion influx induced by capsaicin stimulation)
15,Cc1ccc(NC(=O)c2ccc(/C=C/C(C)C)cc2)c(C)c1 [Compound 156],+ (compound exhibited 0-25% inhibition of calcium ion influx induced by capsaicin stimulation)
16,CC(C)/C=C/c1ccc(C(=O)Nc2ccc3[nH]ccc3c2)cc1 [Compound 158],++ (compound exhibited 25-50% inhibition of calcium ion influx induced by capsaicin stimulation)
17,CCC(C)(C)NC(=O)c1ccc(/C=C/C(C)C)cc1 [Compound 164],+ (compound exhibited 0-25% inhibition of calcium ion influx induced by capsaicin stimulation)
18,CC(C)/C=C/c1ccc(C(=O)Nc2ccc(Cl)nc2)cc1 [Compound 166],+ (compound exhibited 0-25% inhibition of calcium ion influx induced by capsaicin stimulation)
19,CC(C)/C=C/c1ccc(C(=O)Nc2ccnc(Cl)c2)cc1 [Compound 168],+ (compound exhibited 0-25% inhibition of calcium ion influx induced by capsaicin stimulation)
20,CC(C)/C=C/c1ccc(C(=O)Nc2ccc3c(c2)OCO3)cc1 [Compound 169],+++ (compound exhibited 50-75% inhibition of calcium ion influx induced by capsaicin stimulation)
21,CC(C)/C=C/c1ccc(C(=O)Nc2ccc3ncccc3c2)cc1 [Compound 171],++ (compound exhibited 25-50% inhibition of calcium ion influx induced by capsaicin stimulation)
22,CCn1c2ccccc2c2cc(NC(=O)c3ccc(/C=C/C(C)C)cc3)ccc21 [Compound 172],++ (compound exhibited 25-50% inhibition of calcium ion influx induced by capsaicin stimulation)
23,CC(C)/C=C/c1ccc(C(=O)Nc2ccc3c(c2)Cc2ccccc2-3)cc1 [Compound 175],+ (compound exhibited 0-25% inhibition of calcium ion influx induced by capsaicin stimulation)
24,CCC/C=C/c1ccc(C(=O)NC(C)C)cc1 [Compound 179],+ (compound exhibited 0-25% inhibition of calcium ion influx induced by capsaicin stimulation)
25,CCC/C=C/c1ccc(C(=O)NC2CCCCC2)cc1 [Compound 181],+ (compound exhibited 0-25% inhibition of calcium ion influx induced by capsaicin stimulation)

row,SMILES,inhibition of calcium ion influx induced by capsaicin stimulation
1,CCC/C=C/c1ccc(C(=O)NCc2ccco2)cc1 [Compound 183],+ (compound exhibited 0-25% inhibition of calcium ion influx induced by capsaicin stimulation)
2,CCC/C=C/c1ccc(C(=O)NCc2ccc(C(C)C)cc2)cc1 [Compound 185],+ (compound exhibited 0-25% inhibition of calcium ion influx induced by capsaicin stimulation)
3,CCC/C=C/c1ccc(C(=O)NCCCn2ccnc2)cc1 [Compound 190],+ (compound exhibited 0-25% inhibition of calcium ion influx induced by capsaicin stimulation)
4,CCC/C=C/c1ccc(C(=O)NC(c2ccccc2)c2ccccc2)cc1 [Compound 191],+ (compound exhibited 0-25% inhibition of calcium ion influx induced by capsaicin stimulation)
5,CCC/C=C/c1ccc(C(=O)NCCN2CCCC2)cc1 [Compound 192],+ (compound exhibited 0-25% inhibition of calcium ion influx induced by capsaicin stimulation)
6,CCC/C=C/c1ccc(C(=O)NCCCCC)cc1 [Compound 193],++ (compound exhibited 25-50% inhibition of calcium ion influx induced by capsaicin stimulation)
7,CCC/C=C/c1ccc(C(=O)NCCc2ccccc2Cl)cc1 [Compound 194],+ (compound exhibited 0-25% inhibition of calcium ion influx induced by capsaicin stimulation)
8,CCC/C=C/c1ccc(C(=O)NCc2ccccc2)cc1 [Compound 196],+ (compound exhibited 0-25% inhibition of calcium ion influx induced by capsaicin stimulation)
9,CCC/C=C/c1ccc(C(=O)NCCCC)cc1 [Compound 197],+ (compound exhibited 0-25% inhibition of calcium ion influx induced by capsaicin stimulation)
10,CCC/C=C/c1ccc(C(=O)NCCC)cc1 [Compound 198],++ (compound exhibited 25-50% inhibition of calcium ion influx induced by capsaicin stimulation)
11,CCC/C=C/c1ccc(C(=O)Nc2ccncc2)cc1 [Compound 202],+ (compound exhibited 0-25% inhibition of calcium ion influx induced by capsaicin stimulation)
12,CCC/C=C/c1ccc(C(=O)Nc2cccnc2)cc1 [Compound 203],+ (compound exhibited 0-25% inhibition of calcium ion influx induced by capsaicin stimulation)
13,CCC/C=C/c1ccc(C(=O)Nc2cc[nH]n2)cc1 [Compound 204],+ (compound exhibited 0-25% inhibition of calcium ion influx induced by capsaicin stimulation)
14,CCC/C=C/c1ccc(C(=O)Nc2nccs2)cc1 [Compound 205],+ (compound exhibited 0-25% inhibition of calcium ion influx induced by capsaicin stimulation)
15,CCC/C=C/c1ccc(C(=O)NCC2CCCO2)cc1 (stereo not shown) [Compound 206],+ (compound exhibited 0-25% inhibition of calcium ion influx induced by capsaicin stimulation)
16,CCC/C=C/c1ccc(C(=O)NC2CCC(Cc3ccccc3)CC2)cc1 (stereo not shown) [Compound 207],++ (compound exhibited 25-50% inhibition of calcium ion influx induced by capsaicin stimulation)
17,CCC/C=C/c1ccc(C(=O)NCc2ccc3c(c2)OCO3)cc1 [Compound 208],+ (compound exhibited 0-25% inhibition of calcium ion influx induced by capsaicin stimulation)
18,CCC/C=C/c1ccc(C(=O)NCCN2CCOCC2)cc1 [Compound 209],+ (compound exhibited 0-25% inhibition of calcium ion influx induced by capsaicin stimulation)
19,CCC/C=C/c1ccc(C(=O)NCc2cccc(C(F)(F)F)c2)cc1 [Compound 211],+ (compound exhibited 0-25% inhibition of calcium ion influx induced by capsaicin stimulation)
20,CCC/C=C/c1ccc(C(=O)NCc2cc(OC)c(OC)c(OC)c2)cc1 [Compound 213],+ (compound exhibited 0-25% inhibition of calcium ion influx induced by capsaicin stimulation)
21,CCC/C=C/c1ccc(C(=O)NC2CCCC2)cc1 [Compound 214],+ (compound exhibited 0-25% inhibition of calcium ion influx induced by capsaicin stimulation)
22,CCC/C=C/c1ccc(C(=O)NCc2ccccn2)cc1 [Compound 216],+ (compound exhibited 0-25% inhibition of calcium ion influx induced by capsaicin stimulation)
23,CCC/C=C/c1ccc(C(=O)NCCc2ccc(OC)c(OC)c2)cc1 [Compound 217],+ (compound exhibited 0-25% inhibition of calcium ion influx induced by capsaicin stimulation)
24,CCC/C=C/c1ccc(C(=O)NC(C)(C)CO)cc1 [Compound 218],+ (compound exhibited 0-25% inhibition of calcium ion influx induced by capsaicin stimulation)

# — patent US20050222200A1, “AMIDE DERIVATIVES AS ION CHANNEL LIGANDS AND PHARMACEUTICAL COMPOSITIONS AND METHODS OF USING THE SAME” (Renovis, Inc., priority 2003, published 2005)
